Measured values published in patent US20240041830A1, “CIRCULATING BIOMARKERS OF RESPONSE TO PD-1/PD-L1 BLOCKADE AND GSK-3 INHIBITION” (Brown University, priority 2022, published 2024).

Assays:
[1] = test system: patient-derived CD8+ T cells; experiment: ex vivo cytokine profiling of supernatant (Luminex); type: cell-based, human; conditions: forty-eight hours (1 NM) vs DMSO
Method: Human cytokine profiling. Human cell line culture supernatants were analyzed using an R&D systems Human Premixed Multi-Analyte Kit (R&D Systems, Inc., Minneapolis, MN, USA) and a Luminex 200 (RRID: SCR_018025) Instrument (LX200-XPON-RUO, Luminex Corporation, Austin, TX, USA) according to the manufacturer's instructions. Sample levels of TNF-α, 4-1BB/TNFRSF9/CD137, IL-8/CXCL8, Ferritin, IFN-β, IL-10, CCL2/JE/MCP-1, VEGF, CXCL13/BLC/BCA-1, IFN-γ, CCL20/MIP-3 α, CCL3/MIP-1 α, CCL22/MDC, CCL4/MIP-1 β, Fas Ligand/TNFSF6, IL-17/1L-17A, IL-2, BAFF/BLyS/TNFSF13B, GM-CSF, CXCLS/ENA-78, TRANCE/TNFSF11/RANK L, CXCL9/MIG, G-CSF, IFN-γ R1/CD119, VEGFR3/Flt-4, C-Reactive Protein/CRP, CXCL11/I-TAC, IL-21, CXCL14/BRAK, IL-6, Fas/TNFRSF6/CD95, TRAIL R3/TNFRSF10C, IL-4, CCL5/RANTES, PD-L1/137-H1, CCL7/MCP-3/MARC, Chitinase 3-like 1, CXCL10/IP-10/CRG-2, IL-1 μ/IL-1F2, IL-7, Prolactin, CCL8/MCP-2, TRAIL R2/TNFRSF10B, M-CSF, IL-15, Granzyme B, IFN-α, TREM-1, IL-12/1L-23 p40, TRAIL/TNFSF10, CCL11/Eotaxin, and 1L-18/1L-1F4. Quantitative analysis with 6 standards and a minimum of 50 counts per bead region was used with the Luminex to generate analyte values reported as picograms/milliliter (pg/mL). Sample concentrations less than the lower limit of detection for each particular analyte were recoded as the lower limit value divided by 10. Sample concentrations above the upper limit of detection for a particular analyte were recoded as the upper limit of detection.
The inventors collected peripheral blood during the patient's best response at fifteen months, corresponding with their lowest concentration of sIL-2 r in the peripheral blood, and isolated CD8+, non-ATLL T cells for further analysis. The inventors then treated these CD8+ cells ex vivo with elraglusib and assessed changes in cytokine, chemokine, and growth factor profiles in the cell culture supernatant using Luminex (LX200) technology and a custom cytokine panel described by Huntington, Louie, Zhou, & EI-Deiry, A high-throughput customized cytokinome screen of colon cancer cell responses to small-molecule oncology drugs. Oncotarget, 12, 1980-1991 (2021).
Treatment of patient-derived CD8+ T cells with elraglusib increases granzyme B, TRAIL, and IFN-gamma secretion while decreasing VEGF, TNF-alpha, and CCL5/RANTES concentrations in cell culture supernatant in comparison to control groups. Patient-derived CD8+ cytotoxic T cells were treated with elraglusib for forty-eight hours (1 NM) or control (DMSO) and cytokine concentration was measured in cell culture supernatants. (Statistical significance was calculated with GraphPad Prism 9.3.1 using unpaired t tests and is denoted on each plot as follows: P>0.05=n.s., P≤0.05=*, P≤0.01=**, P≤0.001=***, and P≤0.0001=**** (N=3).

[2] = test system: MSS cell line CT-26; experiment: syngeneic murine colon carcinoma BALB/c model, survival and tumor response; type: in vivo, mouse
Method: In vivo studies. […] Once tumor volume reached at least 100 mm^3, mice were randomly assigned to one of seven groups (12 mice/group): Control (isotype), elraglusib, elraglusib+Isotype, anti-PD-1, anti-PD-L1, elraglusib+anti-PD-1, and elraglusib+anti-PD-L1. All treatments were delivered by IP injection using the following dosing schedule: Isotype (70 mg/kg, twice a week), elraglusib (70 mg/kg, twice a week), anti-PD-1 (10 mg/kg, twice a week), anti-PD-L1 (10 mg/kg, twice a week). Treatment dosing was determined based on previous studies of elraglusib and anti-PD-1/anti-PD-L1. […] The treatment continued until mice developed signs of discomfort from excessive tumor growth. Mice were weighed once a week to monitor signs of drug toxicity. The length (L) and width (W) of the masses were measured three times per week with a digital caliper, and the tumor volume was calculated by applying the formula: 0.5LW2 Collection of whole blood and serum was performed by cardiac puncture and sent to Antech Diagnostics GLP (Morrisville, NC, USA) for blood cell count and chemistry tests, or in-house cytokine profiling. Tumors and organs were dissected and harvested for analysis by immunohistochemistry and flow cytometry.
In a syngeneic murine colon carcinoma BALB/c model using microsatellite stable cell line CT-26, the inventors compared isotype, elraglusib (70 mg/kg 2×/week), αPD-1 (10 mg/kg 2×/week), αPD-L1 (10 mg/kg 2×/week), elraglusib+αPD-1, and elraglusib+αPD-L1 treatment groups.
The inventors evaluated the potential for elraglusib to increase the efficacy of immune checkpoint blockade and utilized a syngeneic murine colon carcinoma BALB/c murine model using a MSS cell line CT-26 (FIG. 4A). Mice were randomly assigned to one of seven groups: isotype (N=12), elraglusib (N=12), elraglusib+isotype (N=12), anti-PD-1 (N=12), anti-PD-L1 (N=12), elraglusib+anti-PD-1 (N=12), and elraglusib+ anti-PD-L1 (N=12).

Cn1cc(C2=C(c3coc4ccc(F)cc34)C(=O)NC2=O)c2cc3c(cc21)OCO3 [elraglusib]
CCL5/RANTES concentration in supernatant [1]: decreasing | IFN-gamma secretion [1]: increases | TNF-alpha concentration in supernatant [1]: decreasing | TRAIL secretion [1]: increases | VEGF concentration in supernatant [1]: decreasing | granzyme B secretion [1]: increases | survival compared to the control ([2]; N=12 per group): statistically significant improved survival | hazard ratio for death (HR) ([2]; compared to isotype control group): 0.12 | median overall survival ([2]; elraglusib 70 mg/kg 2×/week, αPD-1/αPD-L1 10 mg/kg 2×/week, isotype control group 16 d): 19 days
